The values below come from ChEMBL document CHEMBL4837225, “Water-soluble derivatives of evodiamine: Discovery of evodiamine-10-phosphate as an orally active antitumor lead compound” (Eur J Med Chem, 2021).

One series has as its system MDA-MB-231. In words: Antiproliferative activity against human MDA-MB-231 cells assessed as inhibition of cell proliferation incubated for 72 hrs by CCK8 assay. In kind it is functional, cell-based. The following applies: MDA-MB-231, 72 h. Background: Tetrazolium assays rely on reduction of a dye to a coloured formazan, in cell work by metabolically active cells.
The subject of series [1] is HCT-116. The series can be described thus: Induction of apoptosis in human HCT-116 cells assessed as early apoptotic cells level at 0.5 uM incubated for 48 hrs by annexin V-FITC/propidium iodide staining based flow cytometry (reference value: 2.02%). In kind it is functional. (In general: A flow cytometer gives signals particle by particle.)
Series [2] deals with HCT-116. In words: Antitumor activity against human HCT-116 cells xenografted in BALB/c nude mouse assessed as inhibition of tumor growth at 60 mg/kg, po BID administered for 21 days measured by caliper relative to control. In kind it is functional. The following applies: HCT-116, po, 504 h, time 21 day, read-out: TGI. A general note: A xenograft is tissue or cells of one species grown in another, often human tumour cells in immunodeficient mice.

The test system of series [3] is HCT-116. In words: Induction of apoptosis in human HCT-116 cells assessed as increase in caspase-9 level at 0.2 to 5 uM measured after 24 hrs by Western blot analysis. Format: functional, cell-based. The following applies: dose 0.2-5 µM.
Another series addresses Tubulin. The series can be described thus: Inhibition of tubulin polymerization (unknown origin). Format: protein-complex assay, Homo sapiens.
For series [4], the system named is HCT-116. The series can be described thus: Induction of apoptosis in human HCT-116 cells assessed as increase in p-53 level at 0.2 to 5 uM measured after 24 hrs by Western blot analysis. In kind it is functional, cell-based. The following applies: dose 0.2-5 µM.
Series [5] is described as follows: Half life in mouse liver microsomes. In kind it is ADME, Microsome.
Series [6] in a line: Solubility of the compound in PBS buffer at pH 7.4. In kind it is physicochemical.
For series [7], the system named is HCT-116. In words: Antitumor activity against human HCT-116 cells xenografted in iv dosed BALB/c nude mouse assessed as inhibition of tumor growth measured by caliper relative to control. In kind it is functional.
Series [8] is described as follows: Toxicity in BALB/c nude mouse xenografted with human A549 cells assessed as effect on body weight at 150 mg/kg, po bid for 14 days. In kind it is organism-based. The following applies: in vivo, 336 h, time 14 day.
Series [9] can be described thus: Toxicity in BALB/c nude mouse xenografted with human A549 cells assessed as morphological changes in kidney at 150 mg/kg, po bid by H&E staining based light microscopic analysis. Format: organism-based. The following applies: in vivo.

Activity calls are given as the source filed them.

As for `CN1c2ccccc2C(=O)N2CCc3c([nH]c4ccc(OP(=O)(O)O)cc34)C21` (stereo unspecified), the IC50 with MDA-MB-231 came to 0.65 µM; at Tubulin, 31.6 µM. The Activity is 44.04% in the series on HCT-116 [1], “Non-Toxic” in series [8] and “Non-Toxic” in series [9]. The inhibition in vivo at 60 mg/kg in the series with HCT-116 [2] turned out to be 48%. Besides, the outcome in the series with HCT-116 [3] and with HCT-116 [4] was Active. In [5], this compound gave a half-life of 58.4 min. The solubility in series [6] is greater than 1000 µg/mL. Further, the TGI in the series on HCT-116 [7] is 45%.

What is called IC50 is the concentration that inhibits the measured activity by half. What is called half-life is the time needed for the level to fall by half in the phase considered. A low value points to fast loss. The term solubility denotes the dissolved amount per volume that the medium holds. The low end stands for little dissolved substance, the high end for much dissolved substance. Broadly, the TGI is the reduction of tumour growth relative to the control group.
